In patent US11000033B2, “Ketone or oxime compound, and herbicide” (NISSAN CHEMICAL CORPORATION, priority 2014, dated 2021):

What was measured:
Assay type in all cases: in vivo
[1] = test system: Echinochloa oryzacola Vasing.; experiment: Test Example 1: herbicidal activity, application before weed generation in submerged conditions (symbol A); conditions: application herbicide amount 320 g/ha
Outline: (§1)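 Mixed weed seeds sown in alluvial soil under 4 cm of water, with rice seedlings at the 2.5-leaf stage added. Same-day treatment: emulsion diluted to a set herbicide amount onto the water. Three weeks at 25–30 °C, then graded on a six-step scale.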

[2] = test system: Scirpus juncoides; experiment: Test Example 1: herbicidal activity, application before weed generation in submerged conditions (symbol B); conditions: application herbicide amount 320 g/ha
Outline: as §1

[3] = test system: Monochoria vaginalis; experiment: Test Example 1: herbicidal activity, application before weed generation in submerged conditions (symbol C); conditions: application herbicide amount 320 g/ha
Text: Herbicidal Activity Test by Application Before Weed Generation in Submerged Conditions
After alluvial soil was placed into 1/10000 are of Wagner pot, water was poured and mixed to form a submerged condition having a water depth of 4 cm. Seeds of Echinochloa oryzacola Vasing., Scirpus juncoides, and Monochoria vaginalis were sowed in a mixed manner in the above pot and thereafter 2.5 leaf stage rice plant seedlings were transplanted thereto. On the day of sowing seeds, the emulsion agent of the compound of the present invention prepared in accordance with Formulation Example 2 was diluted with water so as to be a predetermined herbicide amount and the diluted emulsion agent was applied to the surface of the water. The pot was placed in a greenhouse of 25° C. to 30° C. to grow plant. 3 weeks later from the herbicide application, the effect to each plant was investigated in accordance with the following criteria.
5 Herbicidal ratio of 90% or more (almost completely withered)
4 Herbicidal ratio of 70% or higher and lower than 90%
3 Herbicidal ratio of 40% or higher and lower than 70%
2 Herbicidal ratio of 20% or higher and lower than 40%
1 Herbicidal ratio of 5% or higher and lower than 20%
0 Herbicidal ratio of 5% or lower (almost no effect)

[4] = test system: transplanted rice plant; experiment: Test Example 1: effect on crop, application before weed generation in submerged conditions (symbol a); conditions: application herbicide amount 320 g/ha
Outline: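 Rice at 2.5 leaf stage transplanted into submerged soil (4 cm depth) sown with three weed species; herbicide applied before weed emergence.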

[5] = test system: Echinochloa crus-galli var. crus-galli; experiment: Test Example 3: herbicidal effect by foliage application, Wagner pot (symbol H); conditions: application herbicide amount 320 g/ha
Outline: (§2)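 In a shallow-flooded alluvial soil system held at 25–30 °C, plants including rice grew for 14 days and were then sprayed over the foliage with emulsion diluted to a fixed herbicide amount. Visual rating followed at 3 weeks.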

[6] = test system: Leptochloa chinensis; experiment: Test Example 3: herbicidal effect by foliage application, Wagner pot (symbol D); conditions: application herbicide amount 320 g/ha
Outline: as §2

[7] = test system: Cyperus difformis; experiment: Test Example 3: herbicidal effect by foliage application, Wagner pot (symbol E); conditions: application herbicide amount 320 g/ha
Outline: as §2

[8] = test system: directly sowed rice plant; experiment: Test Example 3: effect on crop by foliage application, Wagner pot (symbol b); conditions: application herbicide amount 320 g/ha
Outline: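 Greenhouse culture at 25–30 °C of seeded rice, Cyperus difformis, Leptochloa chinensis and Echinochloa crus-galli var. crus-galli, in alluvial soil held under 0.1–0.5 cm of water in a Wagner pot.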

[9] = test system: Digitaria ciliaris; experiment: Test Example 5: herbicidal effect by foliage application, plastic box (symbol F); conditions: 320 g/ha, 3 weeks after application
Outline: (§3)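 Herbicide, formulated as an emulsion and diluted in water, is sprayed onto the aerial parts of 14-day seedlings. These were grown at 25° C. to 30° C. in sterilized diluvial soil; effects are graded after 3 weeks.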

[10] = test system: Setaria viridis; experiment: Test Example 5: herbicidal effect by foliage application, plastic box (symbol G); conditions: 320 g/ha, 3 weeks after application
Outline: as §3

[11] = test system: Echinochloa crus-galli var. crus-galli; experiment: Test Example 5: herbicidal effect by foliage application, plastic box (symbol H); conditions: 320 g/ha, 3 weeks after application
Outline: as §3

[12] = test system: Avena fatua; experiment: Test Example 5: herbicidal effect by foliage application, plastic box (symbol I); conditions: 320 g/ha, 3 weeks after application
Outline: as §3

[13] = test system: Alopecurus myosuroides; experiment: Test Example 5: herbicidal effect by foliage application, plastic box (symbol J); conditions: 320 g/ha, 3 weeks after application
Outline: as §3

[14] = test system: Lolium multiflorum Lam.; experiment: Test Example 5: herbicidal effect by foliage application, plastic box (symbol K); conditions: 320 g/ha, 3 weeks after application
Outline: as §3

[15] = test system: Apera spica-venti; experiment: Test Example 5: herbicidal effect by foliage application, plastic box (symbol L); conditions: 320 g/ha, 3 weeks after application
Outline: as §3

[16] = test system: Abutilon theophrasti; experiment: Test Example 5: herbicidal effect by foliage application, plastic box (symbol M); conditions: 320 g/ha, 3 weeks after application
Outline: as §3

[17] = test system: Amaranthus retroflexus; experiment: Test Example 5: herbicidal effect by foliage application, plastic box (symbol N); conditions: 320 g/ha, 3 weeks after application
Outline: as §3

[18] = test system: Chenopodium album; experiment: Test Example 5: herbicidal effect by foliage application, plastic box (symbol O); conditions: 320 g/ha, 3 weeks after application
Outline: as §3

[19] = test system: Stellaria media; experiment: Test Example 5: herbicidal effect by foliage application, plastic box (symbol P); conditions: 320 g/ha, 3 weeks after application
Outline: as §3

[20] = test system: Galium spurium; experiment: Test Example 5: herbicidal effect by foliage application, plastic box (symbol Q); conditions: 320 g/ha, 3 weeks after application
Outline: as §3

[21] = test system: Veronica persica; experiment: Test Example 5: herbicidal effect by foliage application, plastic box (symbol R); conditions: 320 g/ha, 3 weeks after application
Outline: as §3

[22] = test system: corn; experiment: Test Example 5: effect on crop by foliage application, plastic box (symbol c); conditions: 320 g/ha, 3 weeks after application
Outline: (§4)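 Foliage-application test plants come from spot sowing in sterilized diluvial soil under a soil layer of about 1.5 cm, grown at 25° C. to 30° C. in a greenhouse.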

[23] = test system: soybean; experiment: Test Example 5: effect on crop by foliage application, plastic box (symbol d); conditions: 320 g/ha, 3 weeks after application
Outline: as §4

[24] = test system: rice plant; experiment: Test Example 5: effect on crop by foliage application, plastic box (symbol b); conditions: 320 g/ha, 3 weeks after application
Outline: as §4

[25] = test system: wheat; experiment: Test Example 5: effect on crop by foliage application, plastic box (symbol e); conditions: 320 g/ha, 3 weeks after application
Outline: as §4

[26] = test system: beet; experiment: Test Example 5: effect on crop by foliage application, plastic box (symbol f); conditions: 320 g/ha, 3 weeks after application
Outline: as §4

[27] = test system: rapeseed; experiment: Test Example 5: effect on crop by foliage application, plastic box (symbol g); conditions: 320 g/ha, 3 weeks after application
Outline: as §4

## CCCC=Cc1cc(C)c(C2=C(O)CC(CC(C)=O)C2=O)c(C)c1 (stereo not drawn) [7-022]
[1]
  Herbicidal effect grade, A: Echinochloa oryzacola Vasing.: 4 (Herbicidal ratio of 70% or higher and lower than 90%)
[2]
  Herbicidal effect grade, B: Scirpus juncoides: 2 (Herbicidal ratio of 20% or higher and lower than 40%)
[3]
  Herbicidal effect grade, C: Monochoria vaginalis: 3 (Herbicidal ratio of 40% or higher and lower than 70%)
[4]
  Effect grade on crop, a: transplanted rice plant: 3 (Herbicidal ratio of 40% or higher and lower than 70%)
[5]
  herbicidal effect on H (Echinochloa crus-galli var. crus-galli), grade 0-5: 0 (Herbicidal ratio of 5% or lower (almost no effect))
[6]
  herbicidal effect on D (Leptochloa chinensis), grade 0-5: 4 (Herbicidal ratio of 70% or higher and lower than 90%)
[7]
  herbicidal effect on E, grade 0-5: 0 (Herbicidal ratio of 5% or lower (almost no effect))
[8]
  effect on crop b (directly sowed rice plant), grade 0-5: 0 (Herbicidal ratio of 5% or lower (almost no effect))
[9]
  F: Digitaria ciliaris, herbicidal effect (criteria of Test Example 1): 0 (Herbicidal ratio of 5% or lower (almost no effect))
[10]
  G: Setaria viridis, herbicidal effect (criteria of Test Example 1): 0 (Herbicidal ratio of 5% or lower (almost no effect))
[11]
  H: Echinochloa crus-galli var. crus-galli, herbicidal effect (criteria of Test Example 1): 1 (Herbicidal ratio of 5% or higher and lower than 20%)
[12]
  I: Avena fatua, herbicidal effect (criteria of Test Example 1): 0 (Herbicidal ratio of 5% or lower (almost no effect))
[13]
  J: Alopecurus myosuroides, herbicidal effect (criteria of Test Example 1): 0 (Herbicidal ratio of 5% or lower (almost no effect))
[14]
  K: Lolium multiflorum Lam., herbicidal effect (criteria of Test Example 1): 2 (Herbicidal ratio of 20% or higher and lower than 40%)
[15]
  L: Apera spica-venti, herbicidal effect (criteria of Test Example 1): 0 (Herbicidal ratio of 5% or lower (almost no effect))
[16]
  M: Abutilon theophrasti, herbicidal effect (criteria of Test Example 1): 0 (Herbicidal ratio of 5% or lower (almost no effect))
[17]
  N: Amaranthus retroflexus, herbicidal effect (criteria of Test Example 1): 0 (Herbicidal ratio of 5% or lower (almost no effect))
[18]
  O: Chenopodium album, herbicidal effect (criteria of Test Example 1): 0 (Herbicidal ratio of 5% or lower (almost no effect))
[19]
  P: Stellaria media, herbicidal effect (criteria of Test Example 1): 0 (Herbicidal ratio of 5% or lower (almost no effect))
[20]
  Q: Galium spurium, herbicidal effect (criteria of Test Example 1): 0 (Herbicidal ratio of 5% or lower (almost no effect))
[21]
  R: Veronica persica, herbicidal effect (criteria of Test Example 1): 0 (Herbicidal ratio of 5% or lower (almost no effect))
[22]
  c: corn, effect on crop (criteria of Test Example 1): 0 (Herbicidal ratio of 5% or lower (almost no effect))
[23]
  d: soybean, effect on crop (criteria of Test Example 1): 0 (Herbicidal ratio of 5% or lower (almost no effect))
[24]
  b: directly sowed rice plant, effect on crop (criteria of Test Example 1): 0 (Herbicidal ratio of 5% or lower (almost no effect))
[25]
  e: wheat, effect on crop (criteria of Test Example 1): 0 (Herbicidal ratio of 5% or lower (almost no effect))
[26]
  f: beet, effect on crop (criteria of Test Example 1): 0 (Herbicidal ratio of 5% or lower (almost no effect))
[27]
  g: rapeseed, effect on crop (criteria of Test Example 1): 0 (Herbicidal ratio of 5% or lower (almost no effect))

## CC(CC1CC(OC(=O)N(C)C)=C(c2c(C)cc(-c3ccc(Cl)cc3)cc2C)C1=O)=NOCC(F)(F)F (mixture of isomers) [9-026]
[1]
  A (Echinochloa oryzacola Vasing.) herbicidal effect grade: 4 (Herbicidal ratio of 70% or higher and lower than 90%)
[2]
  B (Scirpus juncoides) herbicidal effect grade: 0 (Herbicidal ratio of 5% or lower (almost no effect))
[3]
  C (Monochoria vaginalis) herbicidal effect grade: 0 (Herbicidal ratio of 5% or lower (almost no effect))
[4]
  a (transplanted rice plant) effect on crop grade: 0 (Herbicidal ratio of 5% or lower (almost no effect))
[5]; Table 24
  H (Echinochloa crus-galli var. crus-galli) herbicidal effect grade: 0 (Herbicidal ratio of 5% or lower (almost no effect))
[6]; Table 24
  D (Leptochloa chinensis) herbicidal effect grade: 3 (Herbicidal ratio of 40% or higher and lower than 70%)
[7]; Table 24
  E herbicidal effect grade: 0 (Herbicidal ratio of 5% or lower (almost no effect))
[8]; Table 24
  b (directly sowed rice plant) effect on crop grade: 0 (Herbicidal ratio of 5% or lower (almost no effect))
[9]
  F: Digitaria ciliaris, herbicidal effect grade: 5 (Herbicidal ratio of 90% or more (almost completely withered))
[10]
  G: Setaria viridis, herbicidal effect grade: 4 (Herbicidal ratio of 70% or higher and lower than 90%)
[11]
  H: Echinochloa crus-galli var. crus-galli, herbicidal effect grade: 0 (Herbicidal ratio of 5% or lower (almost no effect))
[12]
  I: Avena fatua, herbicidal effect grade: 3 (Herbicidal ratio of 40% or higher and lower than 70%)
[13]
  J: Alopecurus myosuroides, herbicidal effect grade: 0 (Herbicidal ratio of 5% or lower (almost no effect))
[14]
  K: Lolium multiflorum Lam., herbicidal effect grade: 0 (Herbicidal ratio of 5% or lower (almost no effect))
[15]
  L: Apera spica-venti, herbicidal effect grade: 0 (Herbicidal ratio of 5% or lower (almost no effect))
[16]
  M: Abutilon theophrasti, herbicidal effect grade: 0 (Herbicidal ratio of 5% or lower (almost no effect))
[17]
  N: Amaranthus retroflexus, herbicidal effect grade: 0 (Herbicidal ratio of 5% or lower (almost no effect))
[18]
  O: Chenopodium album, herbicidal effect grade: 0 (Herbicidal ratio of 5% or lower (almost no effect))
[19]
  P: Stellaria media, herbicidal effect grade: 0 (Herbicidal ratio of 5% or lower (almost no effect))
[20]
  Q: Galium spurium, herbicidal effect grade: 0 (Herbicidal ratio of 5% or lower (almost no effect))
[21]
  R: Veronica persica, herbicidal effect grade: 0 (Herbicidal ratio of 5% or lower (almost no effect))
[22]
  c: corn, effect on crop grade: 5 (Herbicidal ratio of 90% or more (almost completely withered))
[23]
  d: soybean, effect on crop grade: 0 (Herbicidal ratio of 5% or lower (almost no effect))
[24]
  b: directly sowed rice plant, effect on crop grade: 0 (Herbicidal ratio of 5% or lower (almost no effect))
[25]
  e: wheat, effect on crop grade: 0 (Herbicidal ratio of 5% or lower (almost no effect))
[26]
  f: beet, effect on crop grade: 0 (Herbicidal ratio of 5% or lower (almost no effect))
[27]
  g: rapeseed, effect on crop grade: 0 (Herbicidal ratio of 5% or lower (almost no effect))
